Assay results reported in US10745416B2, “Macrocyclic compounds for treating disease” (Turning Point Therapeutics, Inc., priority 2017, dated 2020).

Assays:
Assay in all cases: Cell proliferation assay (CellTiter-Glo, 72 hours)
KG-1 = type: cell-based, human
Description: (§1) Human medulla thyroid carcinoma cell line TT (containing RET […] mutation) and acute myelogenous cell line KG-1 were purchased from ATCC. Human colon cancer cell line KMI2 (containing TPM3-TRKA) was obtained from NCI.
(§2) Two thousand cells per well were seeded in 384 well white plate for 24 hrs, and then treated with compounds for 72 hours (37° C., 5% CO2). Cell proliferation was measured using CellTiter-Glo luciferase-based ATP detection assay (Promega) following the manufactures's protocol. IC50 determinations were performed using GraphPad Prism software (GraphPad, Inc., San Diego, Calif.).

KM12 cell (TPM3-TRKA) = type: cell-based, human
Description: as §1, §2

BaF3 EML4-ALK = target: T1, BaF3 EML4-ALK (Homo sapiens, UniProt Q9UM73); type: cell-based; conditions: anti-cell proliferation
T1 construct: The EML4-ALK gene (variant 1) was synthesized at GenScript and cloned into pCDH-CMV-MCS-EF1-Puro plasmid (System Biosciences, Inc); fused on or other part: Q9HC35 (Echinoderm microtubule-associated protein-like 4)
Description: The EML4-ALK gene (variant 1) was synthesized at GenScript and cloned into pCDH-CMV-MCS-EF1-Puro plasmid (System Biosciences, Inc). Ba/F3-EML4-ALK wild type were generated by transducing Ba/F3 cells with lentivirus containing EML4-ALK wide type. Stable cell lines were selected by puromycin treatment, followed by IL-3 withdrawal. Briefly, 5×10^6 Ba/F3 cells were transduced with lentivirus supernatant in the presence of 8 μg/mL protamine sulfate. The transduced cells were subsequently selected with 1 μg/mL puromycin in the presence of IL3-containing medium RPMI1640, plus 10% FBS. After 10-12 days of selection, the surviving cells were further selected for IL3 independent growth.
as §2

BaF3 KIF5B-RET_G810R = target: T2, BaF3 KIF5B-RET_G810R (Homo sapiens, UniProt P07949, G810R, cells depend on it); type: cell-based; conditions: anti-cell proliferation, read-out: BaF3 KIF5B-RET_G810R IC50
T2 construct: fused on or other part: P33176 (Kinesin-1 heavy chain)
From the text: [The source words this procedure for another variant and reports this variant under the same test.] (§3) The KIF5B-RET gene was synthesized at GenScript and cloned into pCDH-CMV-MCS-EF1-Puro plasmid (System Biosciences, Inc). KIF5B-RET point mutation V804M was generated at GenScript by PCR and confirmed by sequencing. Ba/F3-KIF5B-RET wild type and mutant were generated by transducing Ba/F3 cells with lentivirus containing KIF5B-RET wide type or mutant. Stable cell lines were selected by puromycin treatment, followed by IL-3 withdrawal. Briefly, 5×10^6 Ba/F3 cells were transduced with lentivirus supernatant in the presence of 8 μg/mL protamine sulfate. The transduced cells were subsequently selected with 1 µg/mL puromycin in the presence of IL3-containing medium RPMI1640, plus 10% FBS. After 10-12 days of selection, the surviving cells were further selected for IL3 independent growth.
as §2

BaF3 KIF5B-RET = target: T3, BaF3 KIF5B-RET (Homo sapiens, UniProt P07949); type: cell-based; conditions: anti-cell proliferation, read-out: BaF3 KIF5B-RET IC50
T3 construct: fused on or other part: P33176 (Kinesin-1 heavy chain)
From the text: as §3, §2

BaF3 KIF5B-RET_V804M = target: T4, BaF3 KIF5B-RET_V804M (Homo sapiens, UniProt P07949, V804M, cells depend on it); type: cell-based; conditions: anti-cell proliferation, read-out: BaF3 KIF5B-RET_V804M IC50
T4 construct: fused on or other part: P33176 (Kinesin-1 heavy chain)
From the text: as §3, §2

[1] = Homo sapiens, KG-1, anti-cell proliferation
[2] = Homo sapiens, KM12, anti-cell proliferation

T3 sequence (P07949 whole entry, change not shown, the tested form may be a part): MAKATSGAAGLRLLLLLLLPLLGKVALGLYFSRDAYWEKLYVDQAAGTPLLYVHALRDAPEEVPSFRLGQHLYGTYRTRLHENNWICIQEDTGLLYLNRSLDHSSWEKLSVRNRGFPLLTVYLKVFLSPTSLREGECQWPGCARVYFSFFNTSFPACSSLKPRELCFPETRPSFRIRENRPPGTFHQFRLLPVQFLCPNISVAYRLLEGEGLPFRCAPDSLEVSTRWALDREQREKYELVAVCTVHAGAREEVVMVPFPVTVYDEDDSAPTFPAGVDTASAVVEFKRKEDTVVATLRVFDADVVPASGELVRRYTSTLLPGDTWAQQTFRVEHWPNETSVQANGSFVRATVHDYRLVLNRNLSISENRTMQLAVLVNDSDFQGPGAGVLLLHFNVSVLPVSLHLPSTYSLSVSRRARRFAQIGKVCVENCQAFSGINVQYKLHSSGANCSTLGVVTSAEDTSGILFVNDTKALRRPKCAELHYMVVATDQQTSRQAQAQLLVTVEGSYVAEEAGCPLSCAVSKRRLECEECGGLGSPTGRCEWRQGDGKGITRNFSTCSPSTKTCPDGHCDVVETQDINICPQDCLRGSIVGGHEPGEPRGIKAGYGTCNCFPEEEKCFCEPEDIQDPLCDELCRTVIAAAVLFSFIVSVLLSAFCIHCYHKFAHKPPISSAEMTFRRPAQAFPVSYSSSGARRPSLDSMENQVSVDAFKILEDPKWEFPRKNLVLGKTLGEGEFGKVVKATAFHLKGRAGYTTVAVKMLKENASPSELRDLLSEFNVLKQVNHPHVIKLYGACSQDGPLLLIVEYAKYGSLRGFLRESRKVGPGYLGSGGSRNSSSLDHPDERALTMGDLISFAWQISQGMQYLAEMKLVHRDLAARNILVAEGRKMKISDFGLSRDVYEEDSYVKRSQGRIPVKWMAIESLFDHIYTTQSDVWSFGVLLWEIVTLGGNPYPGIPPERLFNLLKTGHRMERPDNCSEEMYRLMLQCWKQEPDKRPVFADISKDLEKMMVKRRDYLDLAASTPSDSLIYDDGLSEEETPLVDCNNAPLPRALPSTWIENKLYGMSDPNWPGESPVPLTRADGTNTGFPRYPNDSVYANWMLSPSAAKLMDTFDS
T2 sequence (P07949 whole entry G810R, the tested form may be a part): as the sequence (P07949 whole entry, change not shown, the tested form may be a part) above, with G810R counted along it
T1 sequence (Q9UM73 whole entry, change not shown, the tested form may be a part): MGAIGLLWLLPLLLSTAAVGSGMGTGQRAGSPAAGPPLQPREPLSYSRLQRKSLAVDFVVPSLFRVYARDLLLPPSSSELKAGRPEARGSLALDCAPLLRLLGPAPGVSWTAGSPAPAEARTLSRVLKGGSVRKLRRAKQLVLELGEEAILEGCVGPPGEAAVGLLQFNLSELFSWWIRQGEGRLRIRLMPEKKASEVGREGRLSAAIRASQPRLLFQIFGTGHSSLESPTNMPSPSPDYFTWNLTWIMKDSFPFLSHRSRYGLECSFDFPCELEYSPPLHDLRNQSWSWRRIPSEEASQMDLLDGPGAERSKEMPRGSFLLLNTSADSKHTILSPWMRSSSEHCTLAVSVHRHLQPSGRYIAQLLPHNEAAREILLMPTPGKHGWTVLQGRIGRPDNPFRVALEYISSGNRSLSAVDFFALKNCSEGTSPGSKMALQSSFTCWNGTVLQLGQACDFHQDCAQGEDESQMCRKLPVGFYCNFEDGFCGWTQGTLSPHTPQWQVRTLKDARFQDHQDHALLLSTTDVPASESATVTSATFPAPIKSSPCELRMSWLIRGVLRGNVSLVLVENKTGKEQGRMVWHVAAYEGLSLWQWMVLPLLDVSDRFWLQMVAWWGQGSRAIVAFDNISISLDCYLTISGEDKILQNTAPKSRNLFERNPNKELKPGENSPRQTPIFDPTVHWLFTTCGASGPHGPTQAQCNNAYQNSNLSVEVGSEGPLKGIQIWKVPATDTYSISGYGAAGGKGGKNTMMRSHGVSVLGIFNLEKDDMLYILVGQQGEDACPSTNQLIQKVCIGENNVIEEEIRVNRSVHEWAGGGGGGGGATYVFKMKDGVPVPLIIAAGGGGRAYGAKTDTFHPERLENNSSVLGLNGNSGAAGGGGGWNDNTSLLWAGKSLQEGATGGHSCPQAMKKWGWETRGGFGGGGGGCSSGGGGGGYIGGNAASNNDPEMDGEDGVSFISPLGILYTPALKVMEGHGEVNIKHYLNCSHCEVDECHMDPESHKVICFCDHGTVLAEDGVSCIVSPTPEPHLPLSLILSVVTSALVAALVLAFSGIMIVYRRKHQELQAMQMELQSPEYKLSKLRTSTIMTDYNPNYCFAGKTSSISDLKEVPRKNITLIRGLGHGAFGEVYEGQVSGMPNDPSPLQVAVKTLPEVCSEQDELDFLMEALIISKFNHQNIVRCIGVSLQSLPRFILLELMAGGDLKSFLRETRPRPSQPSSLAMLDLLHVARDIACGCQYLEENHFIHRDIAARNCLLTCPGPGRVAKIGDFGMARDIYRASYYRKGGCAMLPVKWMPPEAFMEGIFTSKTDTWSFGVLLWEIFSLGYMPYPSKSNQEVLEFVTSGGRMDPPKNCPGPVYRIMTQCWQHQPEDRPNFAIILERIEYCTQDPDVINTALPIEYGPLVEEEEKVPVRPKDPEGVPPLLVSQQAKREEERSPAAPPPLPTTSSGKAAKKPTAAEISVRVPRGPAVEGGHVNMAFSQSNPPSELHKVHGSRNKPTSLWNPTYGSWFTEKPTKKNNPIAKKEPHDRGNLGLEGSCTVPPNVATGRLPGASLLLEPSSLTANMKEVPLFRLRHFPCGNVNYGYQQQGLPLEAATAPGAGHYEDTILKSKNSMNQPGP
T4 sequence (P07949 whole entry V804M, the tested form may be a part): as the sequence (P07949 whole entry, change not shown, the tested form may be a part) above, with V804M counted along it

Molecule	GI50 (BaF3 EML4-ALK) [nM]	GI50 (BaF3 KIF5B-RET_G810R) [nM]	GI50 (BaF3 KIF5B-RET) [nM]	GI50 (BaF3 KIF5B-RET_V804M) [nM]	IC50 (KG-1; [1]) [nM]	IC50 (KM12 cell (TPM3-TRKA); [2]) [nM]	IC50 (KG-1; anti-cell proliferation) [nM]	IC50 (KM12 cell (TPM3-TRKA); anti-cell proliferation) [nM]
O=C1NCC2(CCC2)COc2ncc(F)cc2CN2c3nc4c1cnn4cc3O[C@H]1CCC[C@H]12 [Compound 23, (3a′R,21a′S)-7′-fluoro-1′H,2′H,3′H,3a′H, 5′H,11′H,13′H,14′H,15′H,21a′H-spiro[cyclobutane-1,12′-[10,21]dioxa[4,9,14,17,18,19][hexaaza [18,20](metheno)cyclopenta[5,6][1,4]oxazino[4,3-e]pyrazolo[3,4-h]pyrido [2,3-b][1,5,7,11]oxatriazacyclotetradecin]-15′-one]	1680	422	98.9	3000	228	52.9	–	–
O=C1NC2(CCCC2)COc2ncc(F)cc2CN2c3nc4c1cnn4cc3O[C@H]1CCC[C@H]12 [Compound 26, (3a′R,20a′S)-7′-fluoro-1′H,2′H, 3′H,3a′H,5′H,11′H,13′H,14′H,20a′H-spiro[cyclopentane-1,12′-[10,20]dioxa[4,9,13,16,17,18][hexaaza [17,19](metheno)cyclopenta[5,6][1,4]oxazino[3,4-i]pyrazolo[4,3-f]pyrido [3,2-l][1,4,8,10]oxatriazacyclotridecin]-14′-one]	1410	323	160	5000	737	210	–	–
(3aR,11s,13S,21aS)-7-fluoro-2,3,3a,12, 13,14,15,21a-octahydro-1H,5H,11H- 11,13-methano-18,20- (metheno)cyclopenta[5,6][1,4] oxazino[4,3-e]pyrazolo[3,4-h]pyrido[2,3- b][1,5,7,11]oxatriazacyclotetradecine [Compound 46]	55.5	2.9	< 0.2	71.5	–	–	5.9	2.8
O=C1NC2(COc3ncc(F)cc3CN3c4nc5c1cnn5cc4O[C@H]1CCC[C@H]13)CC(F)(F)C2 [Compound 25, (3a′R,20a′S)-3,3,7′-trifluoro-1′H,2′H, 3′H,3a′H,5′H,11′H,13′H,14′H,20a′H-spiro[cyclobutane-1,12′-[10,20]dioxa[4,9,13,16,17,18][hexaaza [17,19](metheno)cyclopenta[5,6][1,4]oxazino[3,4-i]pyrazolo[4,3-f]pyrido [3,2-l][1,4,8,10]oxatriazacyclotridecin]-14′-one]	3000	559	193	3000	677	277	–	–
O=C1NCCCOc2ncc(F)cc2CN2c3nc4c1cnn4cc3O[C@H]1CCC[C@H]12 [Compound 19, (3aR,21aS)-7-fluoro-2,3,3a,11,12,13,14,21a-octahydro-1H,5H,15H-18,20-(metheno)cyclopenta[5,6][1,4]oxazino[4,3-e]pyrazolo[3,4-h]pyrido[2,3-b][1,5,7,11]oxatriazacyclotetradecin-15-one]	895	78	5.2	3070	73.1	7.8	–	–
C[C@@H]1COc2ncc(F)cc2CN2c3nc4c(cnn4cc3O[C@H]3CCCC[C@H]32)C(=O)N1 [Compound 13, (4aR,13S,21aS)-8-fluoro-13-methyl-1,2,3,4,4a,13,14,21a-octahydro-6H-18, 20-(metheno)pyrazolo[4′,3′:6,7]pyrido [3′,2′:12,13][1,4,8, 10]oxatriazacyclotridecino[9,10-c][1,4]benzoxazin-15(12H)-one]	5000	1120	342	> 10000	452	28.4	–	–
C[C@H]1CNC(=O)c2cnn3cc4c(nc23)N(Cc2cc(F)cnc2O1)[C@@H]1CCCC[C@@H]1O4 [Compound 12, (4aR,12S,21aS)-8-fluoro-12-methyl-1,2,3,4,4a,13,14,21a-octahydro-6H-18, 20-(metheno)pyrazolo[4′,3′:6,7]pyrido [3′,2′:12,13][1,4,8, 10]oxatriazacyclotridecino[9,10-c][1,4]benzoxazin-15(12H)-one]	2710	1010	101	4620	160	13.8	–	–
C[C@@H]1CCOc2ncc(F)cc2CN2c3nc4c(cnn4cc3O[C@H]3CCC[C@H]32)C(=O)N1 [Compound 16, (3aR,13R,21aS)-7-fluoro-13-methyl-2,3,3a,11,12,13,14,21a-octahydro-1H,5H, 15H-18,20-(metheno)cyclopenta[5,6] [1,4]oxazino[4,3-e]pyrazolo[3,4-h]pyrido [2,3-b][1,5,7,11]oxatriazacyclotetradecin-15-one]	340	41.2	16.6	5000	47.4	45.5	–	–

Further lines, with some results ahead:

GI50 (BaF3 EML4-ALK) [nM]	GI50 (BaF3 KIF5B-RET_G810R) [nM]	GI50 (BaF3 KIF5B-RET) [nM]	GI50 (BaF3 KIF5B-RET_V804M) [nM]	Molecule	IC50 (KG-1; [1]) [nM]	IC50 (KM12 cell (TPM3-TRKA); [2]) [nM]	IC50 (KG-1; anti-cell proliferation) [nM]	IC50 (KM12 cell (TPM3-TRKA); anti-cell proliferation) [nM]
152	57.3	10.2	3000	O=C1NC[C@@H](F)COc2ncc(F)cc2CN2c3nc4c1cnn4cc3O[C@H]1CCC[C@H]12 [Compound 39, 3aR,12R,21aS)-7,12-difluoro-2,3,3a,11,12,13,21a-octahydro-1H,5H, 15H-18,20-(metheno)cyclopenta[5,6][1,4] oxazino[4,3-e]pyrazolo[3,4-h]pyrido[2,3-b][1,5,7,11]oxatriazacyclotetradecin-15-one]	59.2	7.4	–	–
1000	63	< 0.2	2000	CC1(C)CNC(=O)c2cnn3cc4c(nc23)N(Cc2cc(F)cnc2OC1)[C@@H]1CCC[C@@H]1O4 [Compound 27, (3aR,21aS)-7-fluoro-12,12-dimethyl-2,3,3a,11,12,13,14,21a-octahydro-1H,5H,15H-18,20-(metheno)cyclopenta[5,6][1,4]oxazino[4,3-e]pyrazolo[3,4-h]pyrido[2,3-b][1,5,7,11]oxatriazacyclotetradecin-15-one]	0.3	0.3	–	–
901	134	0.3	1380	CC1CNC(=O)c2cnn3cc4c(nc23)N(Cc2cc(F)cnc2OC1)[C@@H]1CCC[C@@H]1O4 (stereo partly drawn) [Compound 29, (3aR,21aS)-7-fluoro-12-methyl-2,3,3a,11,12,13,14,21a-octahydro-1H,5H,15H-18,20-(metheno)cyclopenta[5,6][1,4]oxazino[4,3-e]pyrazolo[3,4-h]pyrido[2,3-b][1,5,7,11]oxatriazacyclotetradecin-15-one]	7.9	1.7	–	–
> 10000	> 10000	> 10000	> 10000	C[C@@H]1CNC(=O)c2cnn3cc4c(nc23)N(Cc2cc(F)cnc2O1)[C@H]1CCC[C@H]1O4 [Compound 44, (3aS,11R,20aR)-7-fluoro-11-methyl-2,3 3a,12,13,20a-hexahydro-1H,5H-17,19-(metheno)cyclopenta[5,6][1,4] oxazino[3,4-i]pyrazolo[4,3-f]pyrido[3,2-l][1,4,8,10]oxatriazacyclotridecin-14(11H)-one]	> 10000	668	–	–
1950	1.8	< 0.2	5000	O=C1NCC(F)(F)COc2ncc(F)cc2CN2c3nc4c1cnn4cc3O[C@H]1CCC[C@H]12 [Compound 40, (3aR,21aS)-7,12,12-trifluoro-2,3,3a,11,12,13,14,21a-octahydro-1H,5H, 15H-18,20-(metheno)cyclopenta[5,6][1,4] oxazino[4,3-e]pyrazolo[3,4-h]pyrido[2,3-b][1,5,7,11]oxatriazacyclotetradecin-15-one]	19.1	< 0.2	–	–
3110	1710	526	5000	O=C1NC2(CCC2)CCOc2ncc(F)cc2CN2c3nc4c1cnn4cc3O[C@H]1CCC[C@H]12 [Compound 45]	1130	202	–	–
